From patent publication US9232792B2, “Method for promoting plant growth” (SUMITOMO CHEMICAL COMPANY, LIMITED, priority 2011, dated 2016)

Tests used:
Assay type in all cases: in vivo
[1] = test system: Rice (cultivar: Nipponbare); experiment: Test Example 2: reduction of low-temperature stress by immersion treatment of rice; conditions: 1 ppm in hydroponic solution; 4° C. for 5 days, then 4 days at 25° C.
Experimental: (§1) Rice (cultivar: Nipponbare)
A necessary amount of rice seeds was immersed in an aqueous solution of 1,000 ppm of Benlate, and incubated at 30° C. overnight under dark conditions. The aqueous solution of Benlate was replaced with distilled water, and the seeds were further incubated at 30° C. overnight under dark conditions to stimulate the germination of the seeds. A filter paper was placed on the holes of a plug tray having 406 holes, and the rice seeds obtained after the stimulation of germination were sown on the filter paper. To the rice seeds was added a kimura B solution for hydroponics (see Plant Science 119: 39-47 (1996)) at ½ concentration, and cultivated for 5 days in an artificial weather control room under the following conditions: • temperature: daytime 28° C./night 23° C., humidity: 70%, illuminance: 8,500 lux, and day length: 12 hours. <Compound Treatment> […]
Four (4) days after the cultivation, the overground part of each rice plant in the treated group was taken a photograph, and the area of a green portion in the obtained image data was measured with image analysis software Win ROOF (manufactured by MITANI CORPORATION) to determine the green area of the overground part of the plant. In the treated group, the experiment was performed in duplication and the average value of the green area per individual was calculated. […]

[2] = test system: Wheat (cultivar: Apogee); experiment: Test Example 6: reduction of high-temperature stress by spraying treatment of wheat; conditions: 36° C./32° C. for 7 days, 90 days after stress
Experimental: Five wheat seeds were sown in the culture soil (AISAI) in each plastic pot and cultivated for 28 days in an artificial weather control room under the conditions of a temperature of 18° C. in daytime/15° C. in night, and an illuminance of 7,000 lux. Before the stress test, 3 individuals per pot were removed.
To 0.5 mg of the present compound 1 were added 120 mg of a mixture (weight ratio 1:1) of white carbon and ammonium polyoxyethylene alkyl ether sulfate and 300 μl of water. The mixture was finely ground by a wet grinding method to obtain a flowable formulation of the present compound 1. This flowable formulation was diluted with 50 ml or 500 ml of water. The mixture was diluted with RINO (manufactured by NIHON NOHYAKU CO., LTD) as a spreading agent to 5,000-fold dilution to obtain a spray solution containing 10 ppm or 1 ppm of the present compound 1. A sufficient amount of the spray solution was applied to the wheat seedlings by using an automatic spraying machine.
In addition, a flowable formulation without the present compound 1 was prepared and then sprayed. This is called as a non-treated group.
The tested plants at 28 days after the sowing were cultivated for 7 days in an artificial weather control room under the conditions of a temperature of 36° C. in daytime/32° C. in night, a humidity of 50% in daytime/60% in night, an illuminance of 7,000 lux, and a day length of 12 hours.
After the high-temperature stress treatment, the plants were cultivated for 4 days in an artificial weather control room under the conditions of a temperature of 18° C. in daytime/15° C. in night, and a illuminance of 7,000 lux. Then, 90 days after the high-temperature stress treatment, the number and the weight of seeds in ears of the tested plants in 7 or 8 pots were measured, and the average values of the number and the weight of seeds per one ear were calculated. As a result, the number and the weight of seeds in the wheat plants treated with the present compound 1 at a concentration of 1 ppm or 10 ppm were much larger those in the non-treated group, in which the wheat plants were not treated with the present compound 1.

[3] = test system: Rice (cultivar: Nipponbare); experiment: Test Example 1: promotion of root growth in hydroponics of rice; conditions: 1 ppm in hydroponic solution; 3 days germination + 3 days cultivation
Experimental: as §1
DMSO solutions containing each of the present compounds 1 to 3 at 10,000 ppm were prepared. A 1/10,000 volume of each DMSO solution containing each of the present compounds 1 to 3 at 10,000 ppm was added to a Hoagland solution for hydroponics at ¼ concentration (Hoagland and Arnon, California Agricultural Experiment Station 1950 Circular 347 pp. 34) to obtain a solution for hydroponics containing each of the present compounds 1 to 3 at 1 ppm. These solutions were used in the treated-group.
In a non-treated group, a solution for hydroponics obtained by adding a Hoagland solution for hydroponics at ¼ concentration to a 1/10,000 volume of DMSO was used.
The rice seeds were immersed in an aqueous solution of 1% sodium hypochlorite for 10 minutes, followed by 70% ethanol solution to sterilize their surfaces. After that, the seeds were washed with distilled water. The sterilized seeds were immersed in each solution for hydroponics containing the test compound at the given concentration, and incubated at a temperature of 28° C. for 3 days under dark conditions to stimulate the germination of the seeds.
Then, 30 ml of each solution for hydroponics containing the test compound at the given concentration was dispensed into a plastic tube (20 mm in diameter×113 mm in height) covered with a cardboard on the lateral surface for blocking a light. A float made of a styrene board and a vinyl mesh was placed on the water surface of each solution for hydroponics, and the rice seeds obtained after the stimulation of germination were placed on the float. The seeds were cultivated for 3 days under the conditions of an illuminance of 4,000 lux at the top of the tube, a temperature of 26° C., a humidity of 50%, and a day length of 16 hours.
The root length of the rice seedlings obtained after the cultivation was measured by using WinRHIZO system (manufactured by REGENT INSTRUMENTS). The average value of the root length in the treated group was calculated from the measurement values of 4 or 5 individuals. […]

**Q.** O=C(O)c1cc2cc(C(F)(F)F)ccc2s1 [The present compound 1, 5-(trifluoromethyl)benzo[b]thiophene-2-carboxylic acid] was tested. Which “green area of the overground part of the plant vs non-treated group” value [1] did it give?
**A.** Its value is “much larger”.

**Q.** What about the “number of seeds per ear vs non-treated group” value ([2]; spray 1 ppm) of the same molecule?
**A.** The value was “much larger”.

**Q.** And the “weight of seeds per ear vs non-treated group” value ([2]; spray 1 ppm)?
**A.** The value was “much larger”.

**Q.** And the “number of seeds per ear vs non-treated group” value ([2]; spray 10 ppm)?
**A.** The value was “much larger”.

**Q.** And the “weight of seeds per ear vs non-treated group” value ([2]; spray 10 ppm)?
**A.** Its value is “much larger”.

**Q.** And the “root length of the rice seedlings vs non-treated group” value [3]?
**A.** The value was “much longer”.
